Data on 2 compounds can be found in patent publication US20190227053A1, “BIO-ELECTRIC NOSE” (NEW YORK UNIVERSITY, priority 2016, published 2019).

Each structure is given as a SMILES string.

In this test the test system is olfactory bulb glomeruli. As to the kind of experiment: Odor detection by the bio-electronic nose (surface electrode array on the olfactory bulb). The class given is in vivo, mouse. As to conditions: FIG. 10. From the text:
In one embodiment utilizing an organism, such as a mouse, as the chemical detector, the mouse is anesthetized and a craniotomy will be made above one of the OBs. A grid electrode will be positioned on the surface of the bulb. The recording is optimized for different conditions: sub or epi-durally or through a thin layer of skull. Alternatively, a surface electrode can be implanted in conjunction with a probe (such as silicone) inserted to the bulb to obtain signals from higher processing levels, such as the mitral/tufted cells, to improve the filtration of early olfactory responses. Typically, the electrode is divided into several areas (1-4) of 8×8 electrode sites. […]
In one embodiment, a method of interpreting information from the at least one electrode relies on the development of reliable techniques for recording on the surface of the bulb and on algorithms for extracting odor information from these recordings. […] Theta waves, indicative of respiration, are used to verify inhalation in conjunction with readings from the pressure signal. […]
For […], at each session a mouse will be positioned in a head-fixed apparatus similar to that used for anesthetized recordings (FIG. 7). The sniffing/breathing pattern and signals continuously recorded from electrode array, and we will expose the mouse to multiple odor presentations (n˜500). […]

Take `NCCc1ccccc1` [Phenylethylamine]: under “odorant presented to mouse with electrode array on olfactory bulb, read-out: minimum concentration (EC50) detected by the bio-electronic nose”, the EC50 was determined as 0.01 nM.
Consider `CCCCC(=O)OC` [Methyl Valerate], for which the minimum detectable concentration (odorant detected by the bio-electronic nose) is on record as 10^−12 M.
